Source: patent publication US7507727B2, “Substituted quinobenzoxazine analogs and methods of using thereof” (Cylene Pharmaceuticals, Inc., priority 2003, dated 2009)

Target: c-Myc template DNA (c-myc quadruplex)
Assay: Quadruplex binding / stop assay (Taq polymerase arrest, capillary electrophoresis)
Conditions: read-out: Stop Data c-Myc μM; concentration at which 50% of the DNA was arrested (arrested:full-length 1:1)

Going from `CN1CCCC1CCNC(=O)c1cn2c3c(c(N(C)C4CCNC4)c(F)cc3c1=O)Oc1cc3ccccc3cc1-2` (stereo not shown) [compound 439] to `CN1CCCC1CCNC(=O)c1cn2c3c(c(NCC4CCNC4)c(F)cc3c1=O)Oc1cc3ccccc3cc1-2` (stereo not shown) [compound 559], the IC50 falls from 0.75 µM to 0.375 µM (2-fold). The second is the more potent here.

First: CN1CCCC1CCNC(=O)c1cn2c3c(c(NCCCCN4CCCC4)c(F)cc3c1=O)Oc1cc3ccccc3cc1-2 (stereo not shown) [compound 440]
Second: CN1CCCC1CCNc1c(F)cc2c(=O)c(C(=O)NCCN3CCCC3)cn3c2c1Oc1cc2ccccc2cc1-3 (stereo not shown) [compound 488]
The IC50 of the first is 1.5-fold higher: 0.75 µM for the first, 0.5 µM for the second. The second is the more potent here.

`CN1CCCC1CCNC(=O)c1cn2c3c(c(NCC4CCN(C(=O)OC(C)(C)C)C4)c(F)cc3c1=O)Oc1cc3ccccc3cc1-2` (stereo not shown) [compound 441] and `CN1CCCC1CCNC(=O)c1cn2c3c(c(N4CCC(NC(=O)OC(C)(C)C)C4)ccc3c1=O)Oc1cc3ccccc3cc1-2` (stereo not shown) [compound 451] are the same in IC50: 0.75 µM for the first, 0.75 µM for the second.

`CN1CCCC1CCNC(=O)c1cn2c3c(c(N4CCC(c5ccccn5)C4)c(F)cc3c1=O)Oc1cc3ccccc3cc1-2` (stereo not shown) [compound 442] and `CN1CCC[C@@H]1CCNC(=O)c1cn2c3c(c(N4CCC(c5cnccn5)C4)c(F)cc3c1=O)Oc1cc3ccccc3cc1-2` (stereo partly shown) [compound 468] are within 1.5-fold of each other in IC50: 0.75 µM for the first, 0.74 µM for the second.

`CN1CCCC1CCNC(=O)c1cn2c3c(c(N4CCC(c5cccnc5)C4)c(F)cc3c1=O)Oc1cc3ccccc3cc1-2` (stereo not shown) [compound 443] and `CN1CCC[C@H]1CCNC(=O)c1cn2c3c(c(N4CCC(c5cnccn5)C4)c(F)cc3c1=O)Oc1cc3ccccc3cc1-2` (stereo partly shown) [compound 469] are within 1.5-fold of each other in IC50: 0.75 µM for the first, 0.73 µM for the second.

Compared with `CC1(C)CC(NC(=O)c2cn3c4c(c(N5CCC(N)C5)c(F)cc4c2=O)Oc2cc4ccccc4cc2-3)CC(C)(C)N1` (stereo not shown) [compound 444], `CC1(C)CC(NC(=O)c2cn3c4c(c(N5CCC(N)C5)ccc4c2=O)Oc2cc4ccccc4cc2-3)CC(C)(C)N1` (stereo not shown) [compound 558] is 2-fold lower in IC50: 0.75 µM for the first, 0.375 µM for the second.

`CC1(C)CC(NC(=O)c2cn3c4c(c(N5CCC(N)C5)c(F)cc4c2=O)Oc2cc4ccccc4cc2-3)CC(C)(C)N1` (stereo not shown) [compound 445] and `CN1CCC(NC(=O)c2cn3c4c(c(N5CCC(N)C5)c(F)cc4c2=O)Oc2cc4ccccc4cc2-3)CC1` (stereo not shown) [compound 467] are the same in IC50: 0.75 µM for the first, 0.75 µM for the second.

`CN1CCCC1CCNC(=O)c1cn2c3c(c(NCCN4CCCC4)ccc3c1=O)Oc1cc3ccccc3cc1-2` (stereo not shown) [compound 446] and `CN1CCCC1CCNc1ccc2c(=O)c(C(=O)NCCN3CCCC3)cn3c2c1Oc1cc2ccccc2cc1-3` (stereo not shown) [compound 448] are the same in IC50: 0.75 µM for the first, 0.75 µM for the second.

`CC1(C)CC(NC(=O)c2cn3c4c(c(NCCN5CCCC5)ccc4c2=O)Oc2cc4ccccc4cc2-3)CC(C)(C)N1` [compound 447] and `CN1CCN(CCCNc2ccc3c(=O)c(C(=O)NCCN4CCCC4)cn4c3c2Oc2cc3ccccc3cc2-4)CC1` [compound 454] are the same in IC50: 0.75 µM for the first, 0.75 µM for the second.

`CN1CCCC1CCNC(=O)c1cn2c3c(c(NCCC4CCCN4C)ccc3c1=O)Oc1cc3ccccc3cc1-2` (stereo not shown) [compound 449] and `CN1CCN(CCCNc2ccc3c(=O)c(C(=O)NCCC4CCCN4C)cn4c3c2Oc2cc3ccccc3cc2-4)CC1` (stereo not shown) [compound 455] are the same in IC50: 0.75 µM for the first, 0.75 µM for the second.

`CN(C)CCCCNC(=O)c1cn2c3c(c(NCCC4CCCN4C)ccc3c1=O)Oc1cc3ccccc3cc1-2` (stereo not shown) [compound 450] and `CN(C)CCCCNc1ccc2c(=O)c(C(=O)NCCN3CCOCC3)cn3c2c1Oc1cc2ccccc2cc1-3` [compound 453] are the same in IC50: 0.75 µM for the first, 0.75 µM for the second.

Compared with `CN(C)CCCCNC(=O)c1cn2c3c(c(N4CCC(NC(=O)OC(C)(C)C)C4)ccc3c1=O)Oc1cc3ccccc3cc1-2` (stereo not shown) [compound 452], `CN(C)CCCCNC(=O)c1cn2c3c(c(N4CCC(N)C4)ccc3c1=O)Oc1cc3ccccc3cc1-2` (stereo not shown) [compound 589] is 4.2-fold lower in IC50: 0.75 µM for the first, 0.18 µM for the second. The second is the more potent here.

`CN(C)CCCCNC(=O)c1cn2c3c(c(NCCCN4CCN(C)CC4)ccc3c1=O)Oc1cc3ccccc3cc1-2` [compound 456] and `CN(C)CCCCNc1c(F)cc2c(=O)c(C(=O)NCCCN3CCN(C)CC3)cn3c2c1Oc1c-3ccc2ccccc12` [compound 478] are within 1.5-fold of each other in IC50: 0.75 µM for the first, 0.53 µM for the second.

`NC1CCN(c2ccc3c(=O)c(C(=O)NCCCN4CCOCC4)cn4c3c2Oc2cc3ccccc3cc2-4)C1` (stereo not shown) [compound 457] and `NCCCNC(=O)c1cn2c3c(c(N4CCC(N)C4)c(F)cc3c1=O)Oc1cc3ccccc3cc1-2` (stereo not shown) [compound 466] are the same in IC50: 0.75 µM for the first, 0.75 µM for the second.

`CN1CCCC1CCNC(=O)c1cn2c3c(c(C4C[C@@H](N)[C@H](c5ccccc5)C4)c(F)cc3c1=O)Oc1cc3ccccc3cc1-2` (stereo partly shown) [compound 458] and `CN(C)c1cccc(CNc2c(F)cc3c(=O)c(C(=O)NCCC4CCCN4C)cn4c3c2Oc2cc3ccccc3cc2-4)c1` (stereo not shown) [compound 464] are the same in IC50: 0.75 µM for the first, 0.75 µM for the second.

`CN1CCN(CCCNC(=O)c2cn3c4c(c(N5CCC(N)C5)c(F)cc4c2=O)Oc2ccccc2-3)CC1` (stereo not shown) [compound 459] and `CN(C)CCCCNC(=O)c1cn2c3c(c(N4CCC(N)C4)c(F)cc3c1=O)Oc1ccccc1-2` (stereo not shown) [compound 460] are the same in IC50: 0.75 µM for the first, 0.75 µM for the second.

`CN1CCN(CCCNC(=O)c2cn3c4c(c(N5CC6CCCNC6C5)c(F)cc4c2=O)Oc2cc4ccccc4cc2-3)CC1` (stereo not shown) [compound 461] and `N=C(N)NCCNC(=O)c1cn2c3c(c(N4CC5CCCNC5C4)c(F)cc3c1=O)Oc1cc3ccccc3cc1-2` (stereo not shown) [compound 471] are within 1.5-fold of each other in IC50: 0.75 µM for the first, 0.64 µM for the second.

`O=C(NCCN1CCCC1)c1cn2c3c(c(N4CCC(c5cnccn5)C4)c(F)cc3c1=O)Oc1cc3ccccc3cc1-2` (stereo not shown) [compound 462] and `CC1CCCC(C)N1CCCNC(=O)c1cn2c3c(c(N4CCC(N)C4)c(F)cc3c1=O)Oc1cc3ccccc3cc1-2` (stereo not shown) [compound 465] are the same in IC50: 0.75 µM for the first, 0.75 µM for the second.

Going from `CCOC(CCCNc1c(F)cc2c(=O)c(C(=O)NCCC3CCCN3C)cn3c2c1Oc1cc2ccccc2cc1-3)OCC` (stereo not shown) [compound 463] to `CC1CCCCN1CCCNc1c(F)cc2c(=O)c(C(=O)NCCC3CCCN3C)cn3c2c1Oc1cc2ccccc2cc1-3` (stereo not shown) [compound 557], the IC50 falls from 0.75 µM to 0.375 µM (2-fold). The second is the more potent here.

Compared with `CN(C)CCCCNC(=O)c1cn2c3c(c(NCCCCN(C)C)c(F)cc3c1=O)Oc1c-2ccc2ccccc12` [compound 470], `CN(C)CCCCNC(=O)c1cn2c3c(c(NCCC4CCCN4C)c(F)cc3c1=O)Oc1c-2ccc2ccccc12` (stereo not shown) [compound 550] is 1.7-fold lower in IC50: 0.64 µM for the first, 0.375 µM for the second. The second is the more potent here.

Compared with `CN(C)CCCCNC(=O)c1cn2c3c(c(NCCN4CCCC4)c(F)cc3c1=O)Oc1c-2ccc2ccccc12` [compound 473], `CN(C)CCCCNc1c(F)cc2c(=O)c(C(=O)NCCN3CCCC3)cn3c2c1Oc1c-3ccc2ccccc12` [compound 498] is 1.5-fold lower in IC50: 0.62 µM for the first, 0.41 µM for the second.

Compared with `CN1CCCC1CCNc1c(F)cc2c(=O)c(C(=O)NCCCN3CCOCC3)cn3c2c1Oc1c-3ccc2ccccc12` (stereo not shown) [compound 476], `CN1CCN(CCCNC(=O)c2cn3c4c(c(NCCC5CCCN5C)c(F)cc4c2=O)Oc2c-3ccc3ccccc23)CC1` (stereo not shown) [compound 549] is 1.5-fold lower in IC50: 0.58 µM for the first, 0.375 µM for the second. The second is the more potent here.

`CN1CCCC1CCNC(=O)c1cn2c3cc4c(=O)c5ccccc5c(=O)c4cc3oc3c(N4CCC(N)C4)c(F)cc(c1=O)c32` (stereo not shown) [compound 489] and `NC1CCN(c2c(F)cc3c(=O)c(C(=O)NCCCN4CCOCC4)cn4c5cc6c(=O)c7ccccc7c(=O)c6cc5oc2c34)C1` (stereo not shown) [compound 551] are within 1.5-fold of each other in IC50: 0.5 µM for the first, 0.375 µM for the second.

`CN(C)CCCCNC(=O)c1cn2c3cc4c(cc3oc3c(NCCN5CCOCC5)c(F)cc(c1=O)c32)c(=O)c1ccccc14` [compound 490] and `CN1CCN(CCCNc2c(F)cc3c(=O)c(C(=O)NCCCN4CCOCC4)cn4c5cc6c(=O)c7ccccc7c(=O)c6cc5oc2c34)CC1` [compound 492] are within 1.5-fold of each other in IC50: 0.5 µM for the first, 0.45 µM for the second.

`CN1CCN(CCCNC(=O)c2cn3c4cc5c(=O)c6ccccc6c(=O)c5cc4oc4c(NCCN5CCCC5)c(F)cc(c2=O)c43)CC1` [compound 491] and `O=C(NCCCN1CCOCC1)c1cn2c3cc4oc5cc([N+](=O)[O-])ccc5[nH]c4cc3oc3c(NCCN4CCCC4)c(F)cc(c1=O)c32` [compound 552] are within 1.5-fold of each other in IC50: 0.45 µM for the first, 0.375 µM for the second.

`CN1CCCC1CCNc1c(F)cc2c(=O)c(C(=O)N3CCOCC3)cn3c2c1Oc1cc2ccccc2cc1-3` (stereo not shown) [compound 495] and `N=C(N)NCCNC(=O)c1cn2c3c(c(NCCN4CCCC4)c(F)cc3c1=O)Oc1cc3ccccc3cc1-2` [compound 561] are within 1.5-fold of each other in IC50: 0.42 µM for the first, 0.34 µM for the second.

`NC1CCN(C(=O)c2cn3c4cc5c(=O)c6ccccc6c(=O)c5cc4oc4c(N5CCC(N)C5)c(F)cc(c2=O)c43)C1` (stereo not shown) [compound 499] and `N=C(N)NCC1CCCC(CNC(=O)c2cn3c4c(c(N5CCC(N)C5)c(F)cc4c2=O)Oc2cc4ccccc4cc2-3)C1` (stereo not shown) [compound 560] are within 1.5-fold of each other in IC50: 0.4 µM for the first, 0.37 µM for the second.

Going from `CN1CCCC1CCNC(=O)c1cn2c3c(c(NCCC4CCCN4C)c(F)cc3c1=O)Oc1c-2ccc2ccccc12` (stereo not shown) [compound 525] to `CN(C)CCCCNC(=O)c1cn2c3c(c(N4CC[C@@H](N)C4)c(F)cc3c1=O)Oc1cc3ccccc3cc1-2` [compound 567], the IC50 falls from 0.375 µM to 0.25 µM (1.5-fold). The second is the more potent here.

`CN1CCCC1CCNc1c(F)cc2c(=O)c(C(=O)NCCCN3CCOCC3)cn3c4cc5oc6cc([N+](=O)[O-])ccc6[nH]c5cc4oc1c23` (stereo not shown) [compound 553] and `O=C(NCCN1CCCC1)c1cn2c3cc4oc5cc([N+](=O)[O-])ccc5[nH]c4cc3oc3c(NCCCN4CCOCC4)c(F)cc(c1=O)c32` [compound 554] are the same in IC50: 0.375 µM for the first, 0.375 µM for the second.

`CN(C)CCCCNC(=O)c1cn2c3cc4oc5cc([N+](=O)[O-])ccc5[nH]c4cc3oc3c(NCCCN4CCOCC4)c(F)cc(c1=O)c32` [compound 555] and `CN(C)CCCCNc1c(F)cc2c(=O)c(C(=O)NCCCN3CCOCC3)cn3c4cc5oc6cc([N+](=O)[O-])ccc6[nH]c5cc4oc1c23` [compound 556] are the same in IC50: 0.375 µM for the first, 0.375 µM for the second.

`CN(C)CCCCNC(=O)c1cn2c3cc4oc5cc([N+](=O)[O-])ccc5[nH]c4cc3oc3c(NCCC4CCCN4C)c(F)cc(c1=O)c32` (stereo not shown) [compound 585] and `CN(C)CCCCNc1c(F)cc2c(=O)c(C(=O)NCCN3CCCC3)cn3c4cc5oc6cc([N+](=O)[O-])ccc6[nH]c5cc4oc1c23` [compound 586] are the same in IC50: 0.18 µM for the first, 0.18 µM for the second.

`CN(C)CCCCNC(=O)c1cn2c3cc4oc5cc([N+](=O)[O-])ccc5[nH]c4cc3oc3c(NCCCCN(C)C)c(F)cc(c1=O)c32` [compound 587] and `CN(C)CCCCNCCC(=O)N[C@@H]1CCN(c2c(F)cc3c(=O)c(C(=O)NCCCN4CCN(C)CC4)cn4c3c2Oc2cc3c(cc2-4)oc2ccccc23)C1` [compound 588] are the same in IC50: 0.18 µM for the first, 0.18 µM for the second.
